From patent publication US5198419A, “Formulated medicines for enhancing the efficacy of beta-lactam antibiotics in prophylaxis and treatment against infectious disease due to pathogenic bacteria” (Immuno Japan Inc., priority 1989, dated 1993)

Legend:
[1] = system: Pseudomonas aeruginosa E8; experiment: Example 10: experimental infection in mice, cloxacillin with or without lactoferrin; assay type: in vivo; settings: for ED50: 10 MLD i.p.
Description: (§1) For ED50 values, a range of amounts of antibiotics is given in the examples (e.g., penicillin G: 0.4, 0.2, 0.1, 0.05 mg/mouse). To calculate the ED50, groups of mice in the monotherapy groups and groups of mice in the combined therapy groups received the indicated amount of antibiotic (e.g., one group received 0.4 mg/mouse of penicillin G, one group received 0.2 mg/mouse of penicillin G, one group received 0.1 mg/mouse of penicillin G, one group received 0.05 mg/mouse of penicillin G).
(§2) The potentiation of antibiotic efficacy by lactoferrin was examined using an infection model similar to Example 1. The antibiotics and lactoferrin were administered immediately after the injection (see Table 8). […] Lactoferrin (0.4 mg/mouse) potentiates the efficacies of the four beta-lactam antibiotics used: penicillin G against Streptococcus pyogenes infection was potentiated by 4.6 fold, cefazolin against S. epidermidis by 3.1 fold, methicillin against Diplococcus pneumoniae by 3.7 fold, and cloxacillin against Pseudomonas aeruginosa by 3.0 fold. Therefore, lactoferrin potentiates the efficacy of beta-lactam antibiotics against diseases caused by both gram-positive and gram-negative pathogenic bacteria.

[2] = system: Streptococcus pyogenes #59; experiment: Example 10: experimental infection in mice, penicillin G with or without lactoferrin; assay type: in vivo; settings: for ED50: 1000 MLD i.p.
Description: as §1, §2

[3] = system: Klebsiella pneumoniae 3K25; experiment: Example 7: experimental infection in mice, cefaclor with or without native lactoferrin; assay type: in vivo, strain ddY; settings: Klebsiella pneumoniae, 3K25, po, 168 h, 1.5 × 10^6 CFU/mouse
[4] = system: Klebsiella pneumoniae strain 3K25; experiment: Example 3: experimental infection in mice, cefaclor with or without hololactoferrin; assay type: in vivo, strain ICR; settings: p.o. 1 h after 1×10^6 CFU/mouse
Description: as §1
Sixty male mice, strain ICR, five weeks of age, weighing 21.3±1.5 g (mean±the standard deviation) were randomly allocated into ten groups (n=6), and intraperitoneally injected with Klebsiella pneumoniae strain 3K25, 1×10^6 CFU/mouse. One hour after the injection, the first group was orally given 0.2 ml of physiological saline, the second group orally given hololactoferrin (100% ferric ion saturated lactoferrin, 0.4 mg/mouse), the third through the sixth groups orally given cefaclor (2.0, 1.0, 0.5 and 0.25 mg/mouse each) in 0.2 ml of saline, and the seventh through the tenth groups orally given cefaclor (2.0, 1.0, 0.5 and 0.25 mg/mouse each) and hololactoferrin (100% iron saturated lactoferrin, 0.4 mg/mouse) in 0.2 ml of saline. The mice were fed ad libitum and observed for one week under the same conditions as described in Example 1.

bacteria in urine = experiment: Example 11: patients with chronic urinary tract infection, cefaclor with or without apolactoferrin; assay type: in vivo, human patients; settings: four weeks
Description: Seventeen patients (male 6, female 11, an average 63.5 years old) with chronic urinary tract infection were randomly allocated into two groups. All these patients excreted at least one species of bacteria in their urine for longer than four weeks, although they were treated orally with antibacterial agents. The first group (n=9) was treated for four weeks with 1,200 mg of cefaclor (400 mg, three times a day) and the second group (n=8) with the same dose of cefaclor (three times a day) combined with 600 mg of apolactoferrin (200 mg, three times a day). Urine specimens were collected every one week and the species of bacteria were identified and the quantity of excreted bacteria determined.

Str. epidermids FT = experiment: Example 10: experimental infection in mice, cefazolin with or without lactoferrin; assay type: in vivo; settings: for ED50: 1000 MLD i.p.
Description: as §1, §2

[5] = system: Diplococcus pneumoniae Ch; experiment: Example 10: experimental infection in mice, methicillin with or without lactoferrin; assay type: in vivo; settings: for ED50: 100 MLD i.p.
Description: as §1, §2

[6] = system: Klebsiella pneumoniae strain 3K25; experiment: Example 1: experimental infection in mice, cefpodoxime with or without native lactoferrin; assay type: in vivo, strain ICR
Description: as §1
Sixty male mice, strain ICR, four weeks of age, body weight 19±1.0 g (mean±the standard deviation) were randomly divided into ten groups (n=6); the first group was assigned to the untreated control, the second group to the lactoferrin treated control group, the third through the sixth groups to the cephalosporin treated controls, and the seventh through the tenth groups to the combined treatment group of cephalosporin and lactoferrin. The mice were intraperitoneally injected with pneumobacillus, Klebsiella pneumoniae strain 3K25, 5×10^6 colony forming units (CFU) per mouse. The antibiotics used were orally active cephalosporin or cefpodoxime, and the bovine lactoferrin was the native one derived from cheese whey with 28.5% iron-saturation. One hour after the injection, the untreated control was orally given 0.2 ml of physiological saline, the second group orally given lactoferrin (0.4 mg/mouse), the third through the sixth groups were orally given cefpodoxime (10, 5, 2.5 and 1.25 mg/mouse) in 0.2 ml of physiological saline, the seventh through the tenth groups orally given the admixture of cefpodoxime (5, 2.5, 1.25, and 0.625 mg/mouse) together with lactoferrin (0.4 mg/mouse) in 0.2 ml of the saline. All the mice were housed in an animal room, allowed free access to commercial pellet diet and water, and observed for one week.

[7] = system: Klebsiella pneumoniae strain 3K25; experiment: Example 8: dose-response relationship of potentiation of cefpodoxime efficacy by oral lactoferrin; assay type: in vivo, mice, ddY
Description: as §1
The dose-response relationship of the potentiation of the antibiotic efficacy by lactoferrin was determined using the same experimental infection system as described in Example 1. Male ddY mice, five weeks of age, weighing approximate 20.3 g, were randomly allocated into groups (n=10); the first group was assigned to the cefpodoxime control (5 mg/mouse). The mice were intraperitoneally injected with pneumobacillus, Klebsiella pneumoniae strain 3K25, 3×10^5 per mouse. One hour after the injection, the antibiotic cefpodoxime (1, 0.5, 0.25 and 0.125 mg/mouse) was orally given in 0.2 ml of physiological saline.

[8] = system: Klebsiella pneumoniae strain 3K25; experiment: Example 2: experimental infection in mice, cefpodoxime with or without apolactoferrin; assay type: in vivo, strain ICR; settings: for ED50: p.o. 1 h after 5×10^5 CFU/mouse
Description: as §1
Sixty male mice, strain ICR, five weeks of age, weighing 19.3±1.1 g (mean body weight±the standard deviation) were randomly allocated into ten groups (n=6), and intraperitoneally injected with pneumobacilli, Klebsiella pneumoniae strain 3K25, 5×10^5 CFU/mouse. One hour after the injection, the first group was orally given 0.2 ml of physiological saline, the second group orally given iron free apolactoferrin (0.4 mg) in 0.2 ml of saline, the third through the sixth groups were orally given cefpodoxime (4, 2, 1, and 0.5 mg/mouse) in 0.2 ml saline, and the seventh through the tenth groups orally given the admixture of cefpodoxime (4, 2, 1, and 0.5 mg/mouse) and apolactoferrin (0.4 mg) in 0.2 ml of saline. Mice were fed ad libitum and observed for a week under the same conditions as described in Example 1.

[9] = system: Klebsiella pneumoniae strain 3K25; experiment: Example 5: experimentally infected fed and fasted mice, cefpodoxime with or without native lactoferrin; assay type: in vivo, strain ICR
Description: as §1
Male mice, strain ICR, five weeks old, weighing an average of 21.6 g, were randomly allocated into sixteen groups (n =6). During the next 24 hours, eight groups were allowed free access to diet and water, while the other eight groups were fasted overnight. On the next day, all the mice were injected with 1.4×10^6 CFU/mouse of Klebsiella pneumoniae strain 3K25. The minimal lethal dose of this bacterium is […], and thus the injected dose was 1,000 times greater than the minimal lethal dose. Immediately after the injection, the fed groups were orally given cefpodoxime (10, 5, 2.5, and 1.25 mg/mouse) simultaneously with or without native lactoferrin (0.2 mg/mouse). The fasted groups also were orally given cefpodoxime (10, 5, 2.5, and 1.25 mg/mouse) simultaneously with or without native lactoferrin (0.2 mg/mouse).

Escherichia coli #11 = experiment: Example 7: experimental infection in mice, cephalexin with or without native lactoferrin; assay type: in vivo, strain ddY; settings: po, 168 h, 1.7 × 10^6 CFU/mouse
Description: as §1
Male mice, strain ddY, five weeks old, were randomly allocated into groups (n=10), and were intraperitoneally injected with Proteus mirabilis GN79 (1.3×10^6 CFU/mouse) or with Escherichia coli #11 (1.7×10^6 CFU/mouse) or with Klebsiella pneumoniae 3K25 (1.5×10^6 CFU/mouse). The doses are 1,000 times greater than the minimum lethal dose. Immediately after the injection, the first eight groups were orally given ampicillin, the second eight groups were orally given cephalexin, and the third eight groups were orally given cefaclor, respectively, each simultaneously with or without native lactoferrin (1 mg/mouse) in 0.2 ml of distilled water (see Table 7). All the mice were fed ad libitum and observed for one week under the same conditions as described in Example 1.

[10] = system: Staphylococcus aureus 209P; experiment: Example 9: time-schedule of lactoferrin administration and efficacy of amoxicillin; assay type: in vivo, mice, ddY
Description: as §1
The effect of time-schedule of lactoferrin administration on the potentiation of antibiotic efficacy was examined using an experimental model similar to Example 1. Male ddY mice (n=10), five weeks old, weighing an average of 21.9 g, were used in this experiment. On day 0 all the mice were intraperitoneally injected with 1.2×10^5 CFU/mouse of Staphylococcus aureus 209P. Amoxicillin ([…], 0.625 mg/mouse) was orally given one hour after the injection.

[11] = cloxacillin with lactoferrin (0.4 mg/mouse)
[12] = penicillin G with lactoferrin (0.4 mg/mouse)
[13] = cefazolin with lactoferrin (0.4 mg/mouse)
[14] = methicillin with lactoferrin (0.4 mg/mouse)

Cc1onc(-c2ccccc2Cl)c1C(=O)N[C@@H]1C(=O)N2[C@@H]1SC(C)(C)[C@@H]2C(=O)O [cloxacillin]
ED50 ([1]; cloxacillin control): 3.16 mg/mouse
potentiation of efficacy by lactoferrin [1, 11]: 3.0 fold
ED50 [1, 11]: 1.06 mg/mouse

CC1(C)S[C@@H]2[C@H](NC(=O)Cc3ccccc3)C(=O)N2[C@H]1C(=O)O [penicillin G]
ED50 ([2]; penicillin G control): 0.106 mg/mouse
potentiation of efficacy by lactoferrin [2, 12]: 4.6 fold
ED50 [2, 12]: 0.023 mg/mouse

N[C@@H](C(=O)N[C@@H]1C(=O)N2C(C(=O)O)=C(Cl)CS[C@H]12)c1ccccc1 [cefaclor]
ED50 ([3]; cefaclor alone): 28.5 mg/kg
ED50 ([3]; cefaclor with lactoferrin (1 mg/mouse)): 10 mg/kg
ED50 ([4]; cefaclor combined therapy with hololactoferrin (0.4 mg/mouse)): 0.30 mg/mouse
ED50 ([4]; cefaclor monotherapy): 0.63 mg/mouse
bacteria in the urine (bacteria in urine; cefaclor 1,200 mg combined with 600 mg apolactoferrin daily): bacteria were no longer detected in the urine
patients still excreting bacteria (bacteria in urine; cefaclor monotherapy 1,200 mg daily): six patients out of nine
efficacy of combined therapy versus monotherapy (bacteria in urine; cefaclor with apolactoferrin): significantly more effective

Cc1nnc(SCC2=C(C(=O)O)N3C(=O)[C@@H](NC(=O)Cn4cnnn4)[C@H]3SC2)s1 [cefazolin]
ED50 (Str. epidermids FT; cefazolin control): 0.152 mg/mouse
potentiation of efficacy by lactoferrin (Str. epidermids FT; [13]): 3.1 fold
ED50 (Str. epidermids FT; [13]): 0.048 mg/mouse

COc1cccc(OC)c1C(=O)N[C@@H]1C(=O)N2[C@@H]1SC(C)(C)[C@@H]2C(=O)O [methicillin]
ED50 ([5]; methicillin control): 0.227 mg/mouse
potentiation of efficacy by lactoferrin [5, 14]: 3.7 fold
ED50 [5, 14]: 0.061 mg/mouse

COCC1=C(C(=O)O)N2C(=O)[C@@H](NC(=O)/C(=N\OC)c3csc(N)n3)[C@H]2SC1 [cefpodoxime]
ED50 ([6]; cefpodoxime alone, p.o. 1 h after i.p. injection of 5×10^6 CFU/mouse, 95% range not named (6.3-10.0 mg/mouse printed)): 7.93 mg/mouse
life span versus untreated and lactoferrin controls ([6]; cefpodoxime treated group): significantly prolonged
ED50 ([6]; cefpodoxime with native lactoferrin (0.4 mg/mouse), p.o. 1 h after injection of 5×10^6 CFU/mouse, range 0.92-1.70 mg/mouse printed): 1.25 mg/mouse
life span versus untreated and lactoferrin controls ([6]; combined treatment groups of cefpodoxime and lactoferrin): significantly prolonged
ED50 ([7]; cefpodoxime with lactoferrin 0.00 mg/mouse): 0.473 mg/mouse
ED50 ([7]; cefpodoxime with lactoferrin 0.005 mg/mouse): 0.382 mg/mouse
ED50 ([7]; cefpodoxime with lactoferrin 0.05 mg/mouse): 0.104 mg/mouse
ED50 ([7]; cefpodoxime with lactoferrin 0.5 mg/mouse): 0.104 mg/mouse
ED50 ([7]; cefpodoxime with lactoferrin 5.0 mg/mouse): 0.104 mg/mouse
ED50 ([7]; cefpodoxime with lactoferrin 50.0 mg/mouse): 0.104 mg/mouse
ED50 ([8]; cefpodoxime combined therapy with apolactoferrin (0.4 mg), range 0.19-0.33 mg printed): 0.25 mg/mouse
ED50 ([8]; cefpodoxime monotherapy, range 0.74-1.32 mg/mouse printed): 0.99 mg/mouse
recovery of mice ([8]; cefpodoxime with apolactoferrin, combined therapy group): all the mice recovered
ED50 ([9]; fasted, cefpodoxime (antibiotic) alone): 39.40 (27.15-56.15) mg/mouse
ED50 ([9]; fasted, cefpodoxime admixture with lactoferrin (0.2 mg/mouse)): 7.80 (5.65-10.83) mg/mouse
ED50 ([9]; fed, cefpodoxime (antibiotic) alone): 15.65 (11.45-21.30) mg/mouse
ED50 ([9]; fed, cefpodoxime admixture with lactoferrin (0.2 mg/mouse)): 4.90 (3.65-6.60) mg/mouse

CC1=C(C(=O)O)N2C(=O)[C@@H](NC(=O)[C@H](N)c3ccccc3)[C@H]2SC1 [cephalexin]
ED50 (Escherichia coli #11; cephalexin alone): 216 mg/kg
ED50 (Escherichia coli #11; cephalexin with lactoferrin (1 mg/mouse)): 34.8 mg/kg

CC1(C)S[C@@H]2[C@H](NC(=O)[C@H](N)c3ccc(O)cc3)C(=O)N2[C@H]1C(=O)O [amoxicillin]
ED50 ([10]; amoxicillin control, no lactoferrin): 2.46 mg/mouse
ED50 ([10]; amoxicillin, lactoferrin (0.5 mg/mouse) dosed +3 (hr)): 0.78 mg/mouse
ED50 ([10]; amoxicillin, lactoferrin (0.5 mg/mouse) dosed +12 (hr)): 2.48 mg/mouse
ED50 ([10]; amoxicillin, lactoferrin (0.5 mg/mouse) dosed -1 (day)): 1.39 mg/mouse
ED50 ([10]; amoxicillin, lactoferrin (0.5 mg/mouse) dosed -2 (day)): 2.46 mg/mouse
ED50 ([10]; amoxicillin, lactoferrin (0.5 mg/mouse) dosed -3 (day)): 2.46 mg/mouse
ED50 ([10]; amoxicillin, lactoferrin (0.5 mg/mouse) dosed -5 (day)): 2.14 mg/mouse
ED50 ([10]; amoxicillin, lactoferrin (0.5 mg/mouse) dosed -6 (hr)): 0.40 mg/mouse
ED50 ([10]; amoxicillin, lactoferrin (0.5 mg/mouse) dosed -12 (hr)): 0.55 mg/mouse
ED50 ([10]; amoxicillin, lactoferrin (0.5 mg/mouse) dosed at 0): 0.40 mg/mouse
